Measured values reported in PMC5684318, “Heterogeneity in the Drosophila gustatory receptor complexes that detect aversive compounds” (Nature Communications, 2017).

Molecular target: T1, GR22e/GR32a/GR66a (Drosophila melanogaster, UniProt P58953+Q9VKJ7+Q9VSH2)
T1 construct: full-length receptors co-expressed in Drosophila S2 cells (with EGFP) and in sweet GRNs via UAS/Gr64f-GAL4
T1 sequence (P58953 1-389): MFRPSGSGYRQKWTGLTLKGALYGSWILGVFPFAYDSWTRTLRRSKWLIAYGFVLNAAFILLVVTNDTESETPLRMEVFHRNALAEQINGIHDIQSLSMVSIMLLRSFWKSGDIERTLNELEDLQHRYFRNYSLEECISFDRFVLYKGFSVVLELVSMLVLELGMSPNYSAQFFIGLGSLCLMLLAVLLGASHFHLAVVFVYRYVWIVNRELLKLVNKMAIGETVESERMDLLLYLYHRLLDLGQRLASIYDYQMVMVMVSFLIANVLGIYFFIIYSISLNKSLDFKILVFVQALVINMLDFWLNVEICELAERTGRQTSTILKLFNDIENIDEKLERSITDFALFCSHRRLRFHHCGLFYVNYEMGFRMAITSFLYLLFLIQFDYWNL
T1 sequence (Q9VKJ7 1-461): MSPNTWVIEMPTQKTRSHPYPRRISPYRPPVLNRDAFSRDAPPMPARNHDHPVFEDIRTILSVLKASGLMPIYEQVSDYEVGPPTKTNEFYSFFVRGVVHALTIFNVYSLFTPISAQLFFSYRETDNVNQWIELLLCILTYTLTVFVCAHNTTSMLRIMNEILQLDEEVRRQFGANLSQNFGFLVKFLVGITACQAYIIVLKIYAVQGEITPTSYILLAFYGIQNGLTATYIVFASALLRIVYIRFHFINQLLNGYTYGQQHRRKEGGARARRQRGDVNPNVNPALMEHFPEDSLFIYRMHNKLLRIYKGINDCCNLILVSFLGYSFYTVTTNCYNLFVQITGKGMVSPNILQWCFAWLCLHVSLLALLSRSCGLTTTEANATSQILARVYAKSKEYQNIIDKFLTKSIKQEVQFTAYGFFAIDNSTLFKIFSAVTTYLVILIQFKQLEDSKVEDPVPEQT
T1 sequence (Q9VSH2 1-527): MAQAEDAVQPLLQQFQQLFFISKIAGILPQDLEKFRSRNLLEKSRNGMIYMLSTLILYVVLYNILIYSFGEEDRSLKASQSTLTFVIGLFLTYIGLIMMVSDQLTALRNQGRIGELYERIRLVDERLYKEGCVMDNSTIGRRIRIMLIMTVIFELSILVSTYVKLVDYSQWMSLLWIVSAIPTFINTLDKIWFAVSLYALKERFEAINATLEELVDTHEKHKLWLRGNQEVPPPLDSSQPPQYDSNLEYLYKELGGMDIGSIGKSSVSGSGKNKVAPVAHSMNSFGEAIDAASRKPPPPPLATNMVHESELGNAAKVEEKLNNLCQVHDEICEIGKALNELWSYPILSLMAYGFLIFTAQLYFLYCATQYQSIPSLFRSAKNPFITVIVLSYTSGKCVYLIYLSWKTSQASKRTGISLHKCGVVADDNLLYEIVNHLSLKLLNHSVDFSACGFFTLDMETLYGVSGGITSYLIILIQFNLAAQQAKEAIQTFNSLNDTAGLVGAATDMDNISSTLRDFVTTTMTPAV
Assay: whole-cell patch clamp of S2 cells; tip recording of L-type sensilla misexpressing the receptors
Format: cell-based
Conditions: agonist; S2 cells pH 7.4, room temperature, voltage ramp -80 to +80 mV; sensilla 1 mM

COc1ccc2cc3[n+](cc2c1OC)CCc1cc2c(cc1-3)OCO2 [BER, berberine]
whole-cell patch clamp of S2 cells; tip recording of L-type sensilla misexpressi: both Gr combinations confer sensitivity to LOB, BER, and DEN on S2 cells

CC[N+](CC)(CC(=O)Nc1c(C)cccc1C)Cc1ccccc1 [DEN, denatonium]
whole-cell patch clamp of S2 cells; tip recording of L-type sensilla misexpressi: both Gr combinations confer sensitivity to LOB, BER, and DEN on S2 cells

CN1[C@@H](CC(=O)c2ccccc2)CCC[C@H]1C[C@H](O)c1ccccc1 [LOB, lobeline]
whole-cell patch clamp of S2 cells; tip recording of L-type sensilla misexpressi: both Gr combinations confer sensitivity to LOB, BER, and DEN on S2 cells

O=C1C[C@@H]2OCC=C3CN4CC[C@]56c7ccccc7N1[C@H]5[C@H]2[C@H]3C[C@H]46 [STR, strychnine]
whole-cell patch clamp of S2 cells; tip recording of L-type sensilla misexpressi: GR22e/GR32a/GR66a-expressing S2 cells also respond to STR
